For 27 compounds, EC50 results are on record in patent publication US20260001889A1, “COMPOSITIONS USEFUL FOR MODULATING SPLICING” (Skyhawk Therapeutics, Inc., priority 2022, published 2026).

For the test, the system named is ATXN3-HiBiT protein. As to the kind of experiment: ATXN3 Total Protein Assay (Kelly-ATXN3-HiBiT luminescence). The test is classed as cell-based. The note with it: Kelly-ATXN3-HiBiT cells, 48 h after addition of compound. From the text: Example 36: ATXN3 Total Protein Assay
To monitor ATXN3 protein levels by luminescence, a Kelly-ATXN3-HiBiT cell line with homozygous knock-in of HiBiT at the C-terminus of the endogenous ATXN3 gene was used (knock-in of the HiBiT-tag coding sequence SEQ ID NO. 14: 5′[…]3′ into exon 11 of ATXN3-position 1114 of ATXN3 RefSeq NM_004993.6). Manipulations of the Kelly-ATXN3-HiBiT cell line that result in downregulation of the ATXN3-HiBiT protein (through modulation of ATXN3-HiBiT pre-mRNA splicing) can be followed by monitoring the luminescence signal of the HiBiT tag using the Nano Glo HiBiT Lytic Detection System (Promega, #N3050). Kelly-ATXN3-HiBiT cells were maintained in RPMI 1640 w/Glutamax (Gibco, #61870010), 10% FBS (Sigma Aldrich, #F8687), 1% Penicillin/Streptomycin (Gibco, #15140-122) at 37° C., 5% CO2. To assess HiBiT-luminescence signal upon compound treatment, 2000 Kelly-ATXN3-HiBiT cells were seeded per well in 384 plate format. Compounds were added 24 h after seeding. ATXN3-HiBiT-luminescence signal was read out 48 h after addition of the compound using the Nano Glo HiBiT Lytic Detection System (Promega, #N3050) according to the manufacturer's instructions. To control for cell viability, an identically prepared sister plate was read out with the CellTiter-Glo® 2.0 Assay (Promega, #G9243) according to the manufacturer's instructions. Fold changes of ATXN3-HiBiT-luminescence and of CellTiter-Glo viability signals were calculated relative to a DMSO control condition.
As for `Cc1c(CC(N)CC2(F)CC2)oc2c(NCc3cccs3)cc(Cl)nc12` (stereo not drawn) [Compound 67, 2-[2-amino-3-(1-fluorocyclopropyl)propyl]-5-chloro-3-methyl-7-thenylamino-1-oxa-4-azaindene], the concentration giving a half-maximal response (EC50) (as a rule, the concentration at which the effect is half-maximal) lay within 101 to 500 nM.

The compound `Cc1c(C[C@@H](N)CC2(F)CC2)oc2c(NCc3cccs3)cc(Cl)nc12` [Compound 68, 2-[(R)-2-amino-3-(1-fluorocyclopropyl)propyl]-5-chloro-3-methyl-7-thenylamino-1-oxa-4-azaindene] registered an EC50 of 501 to 5000 nM.

`Cc1c(C[C@H](N)CC2(F)CC2)oc2c(NCc3cccs3)cc(Cl)nc12` [Compound 69, 2-[(S)-2-amino-3-(1-fluorocyclopropyl)propyl]-5-chloro-3-methyl-7-thenylamino-1-oxa-4-azaindene] showed an EC50 of 0.01 to 100 nM.

As for `Cc1c(CC(N)CC2COC2)oc2c(NCc3cccs3)cc(Cl)nc12` (stereo not drawn) [Compound 70, 2-[2-amino-3-(3-oxetanyl)propyl]-5-chloro-3-methyl-7-thenylamino-1-oxa-4-azaindene], the EC50 lay in the range of 10000 to 40000 nM.

`Cc1c(CC(N)CC2(F)COC2)oc2c(NCc3cccs3)cc(Cl)nc12` (stereo not drawn) [Compound 73, 2-[2-amino-3-(3-fluoro-3-oxetanyl)propyl]-5-chloro-3-methyl-7-thenylamino-1-oxa-4-azaindene] yielded a concentration giving a half-maximal response (EC50) of 10000 to 40000 nM.

Consider `N[C@@H](Cc1oc2c(NCc3cccs3)cc(Cl)nc2c1Br)CC1(F)CC1` [Compound 86, 2-[(S)-2-amino-3-(1-fluorocyclopropyl)propyl]-3-bromo-5-chloro-7-thenylamino-1-oxa-4-azaindene], for which the EC50 lay within 501 to 5000 nM.

`N[C@H](Cc1oc2c(NCc3cccs3)cc(Cl)nc2c1Br)CC1(F)CC1` [Compound 87, 2-[(R)-2-amino-3-(1-fluorocyclopropyl)propyl]-3-bromo-5-chloro-7-thenylamino-1-oxa-4-azaindene] gave a concentration giving a half-maximal response (EC50) of 101 to 500 nM.

In turn, `COC1([C@H](N)Cc2oc3c(NCc4cccs4)cc(Cl)nc3c2Br)CC1` [Compound 144, 2-[(R)-2-amino-2-(1-methoxycyclopropyl)ethyl]-3-bromo-5-chloro-7-thenylamino-1-oxa-4-azaindene] registered a half-maximal effective concentration (EC50) of 10000 to 40000 nM.

The compound `N[C@@H](CCOC(F)(F)F)Cc1oc2c(NCc3cccs3)cc(Cl)nc2c1Br` [Compound 146, 2-[(S)-2-amino-4-trifluoromethoxybutyl]-3-bromo-5-chloro-7-thenylamino-1-oxa-4-azaindene] came in with an EC50 of 0.01 to 100 nM.

On to `COCC[C@H](N)Cc1oc2c(NCc3cccs3)cc(Cl)nc2c1Br` [Compound 147, 2-[(S)-2-amino-4-methoxybutyl]-3-bromo-5-chloro-7-thenylamino-1-oxa-4-azaindene], for which the half-maximal effective concentration (EC50) was 0.01 to 100 nM.

Consider `N#CC[C@H](N)Cc1oc2c(NCc3cccs3)cc(Cl)nc2c1Br` [Compound 155, (S)-3-amino-4-(3-bromo-5-chloro-7-thenylamino-1-oxa-4-aza-2-indenyl)butyronitrile], for which the EC50 lay in the range of 501 to 5000 nM.

`N[C@@H](COCC(F)F)Cc1oc2c(NCc3cccs3)cc(Cl)nc2c1Br` [Compound 182, 2-[(R)-2-amino-3-(2,2-difluoroethoxy)propyl]-3-bromo-5-chloro-7-thenylamino-1-oxa-4-azaindene] displayed a half-maximal effective concentration (EC50) of 0.01 to 100 nM.

With `N[C@H](Cc1oc2c(NCc3cccs3)cc(Cl)nc2c1Br)C[C@@H]1CC1(F)F` [Compound 183, 2-{(S)-3-[(R)-2,2-difluorocyclopropyl]-2-aminopropyl}-3-bromo-5-chloro-7-thenylamino-1-oxa-4-azaindene], the concentration for a half-maximal effect (EC50) lay within 101 to 500 nM.

`N[C@H](Cc1oc2c(NCc3cccs3)cc(Cl)nc2c1Br)C[C@H]1CC1(F)F` [Compound 184, 2-{(S)-3-[(S)-2,2-difluorocyclopropyl]-2-aminopropyl}-3-bromo-5-chloro-7-thenylamino-1-oxa-4-azaindene] registered an EC50 of 101 to 500 nM.

With `CC(=O)NC[C@H](N)Cc1oc2c(NCc3cccs3)cc(Cl)nc2c1Br` [Compound 219], the concentration giving a half-maximal response (EC50) lay in the range of 0.01 to 100 nM.

`C[C@H](N)C(F)(F)c1oc2c(NCc3nccs3)cc(Cl)nc2c1Br` [Compound 223, 2-[(S)-2-amino-1,1-difluoropropyl]-3-bromo-5-chloro-7-{[(1,3-thiazol-2-yl)methyl]amino}-1-oxa-4-azaindene] returned an EC50 of 101 to 500 nM.

The compound `N[C@@H](CO)C(F)(F)c1oc2c(NCc3nccs3)cc(Cl)nc2c1Br` [Compound 224, (S)-2-amino-3-(3-bromo-5-chloro-7-{[(1,3-thiazol-2-yl)methyl]amino}-1-oxa-4-aza-2-indenyl)-3,3-difluoro-1-propanol] returned an EC50 of 501 to 5000 nM.

With `[2H][C@@](C)(N)Cc1oc2c(NCc3cccs3)cc(Cl)nc2c1Br` [Compound 229, 2-[(S)-2-amino(2-2H)propyl]-3-bromo-5-chloro-7-thenylamino-1-oxa-4-azaindene], the EC50 fell in the range of 0.01 to 100 nM.

Take `[2H]C([2H])([2H])C(N)Cc1oc2c(NCc3cccs3)cc(Cl)nc2c1Br` (stereo not drawn) [Compound 230, 2-[2-amino(3,3,3-^2H3)propyl]-3-bromo-5-chloro-7-thenylamino-1-oxa-4-azaindene]: the EC50 was 0.01 to 100 nM.

Take `[2H]C([2H])([2H])[C@H](N)Cc1oc2c(NCc3cccs3)cc(Cl)nc2c1Br` [Compound 231, 2-[(S)-2-amino(3,3,3-2H3)propyl]-3-bromo-5-chloro-7-thenylamino-1-oxa-4-azaindene]: the 50% effective concentration (EC50) lay in the range of 0.01 to 100 nM.

The compound `[2H]C([2H])([2H])[C@@H](N)Cc1oc2c(NCc3cccs3)cc(Cl)nc2c1Br` [Compound 232, 2-[(R)-2-amino(3,3,3-^2H3)propyl]-3-bromo-5-chloro-7-thenylamino-1-oxa-4-azaindene] had a half-maximal effective concentration (EC50) of 101 to 500 nM.

As for `[2H]C([2H])([2H])OC[C@H](N)Cc1oc2c(NCc3cccs3)cc(Cl)nc2c1C#C` [Compound 233, 2-[(R)-2-amino-3-(2H3)methoxypropyl]-5-chloro-3-ethynyl-7-thenylamino-1-oxa-4-azaindene], the EC50 was 0.01 to 100 nM.

Take `[2H]C([2H])(Nc1cc(Cl)nc2c(Br)c(C[C@]([2H])(C)N)oc12)c1cccs1` [Compound 234, 2-[(S)-2-amino(2-2H)propyl]-3-bromo-5-chloro-7-{[(2-thienyl)(^2H2)methyl]amino}-1-oxa-4-azaindene]: the EC50 is 0.01 to 100 nM.

`N#CC[C@H](N)Cc1oc2c(NCc3ccco3)cc(Cl)nc2c1Br` [Compound 235, (S)-3-amino-4-[3-bromo-5-chloro-7-(furfurylamino)-1-oxa-4-aza-2-indenyl]butyronitrile] displayed a concentration for a half-maximal effect (EC50) of 501 to 5000 nM.

`C#Cc1c(C[C@@H](N)COC2CC2)oc2c(NCc3cccs3)cc(Cl)nc12` [Compound 244, 2-[(R)-2-amino-3-cyclopropoxypropyl]-5-chloro-3-ethynyl-7-thenylamino-1-oxa-4-azaindene] registered a concentration for a half-maximal effect (EC50) of 0.01 to 100 nM.

`[2H]C([2H])(Nc1cc(Cl)nc2c(Br)c(C[C@@H](N)COC(F)(F)F)oc12)c1cccs1` [Compound 246, 2-[(R)-2-amino-3-trifluoromethoxypropyl]-3-bromo-5-chloro-7-{[(2-thienyl)(^2H2)methyl]amino}-1-oxa-4-azaindene] returned an EC50 of 101 to 500 nM.

`C#Cc1c(C[C@@H](N)CO)oc2c(NCc3cccs3)cc(Cl)nc12` [Compound 248, (R)-2-amino-3-(5-chloro-3-ethynyl-7-thenylamino-1-oxa-4-aza-2-indenyl)-1-propanol] showed an EC50 of 0.01 to 100 nM.
